SMILES strings stand for the structures.

Broadly, the melting point is the temperature of the solid-liquid transition.

For `CN1CCN(Cc2ccc(-c3cc4c(NCc5cccc(Cl)c5)ncnc4[nH]3)cc2)CC1` [Example 89, (3-Chloro-benzyl)-{6-[4-(4-methyl-piperazin-1-ylmethyl)-phenyl]-7H-pyrrolo[2,3-d]pyrimidin-4-yl}-amine], the melting point lay within 235 to 237 °C.
Regarding `CN(C)Cc1ccc(-c2cc3c(NCc4ccccc4Cl)ncnc3[nH]2)cc1` [Example 90, (2-Chloro-benzyl)-[6-(4-dimethylaminomethyl-phenyl)-7H-pyrrolo[2,3-d]pyrimidin-4-yl]-amine], the melting point was in the range of 256 to 258 °C.
As for `CCN1CCN(Cc2ccc(-c3cc4c(NCc5ccccc5Cl)ncnc4[nH]3)cc2)CC1` [Example 91, (2-Chloro-benzyl)-{6-[4-(4-ethyl-piperazin-1-ylmethyl)-phenyl]-7H-pyrrolo[2,3-d]pyrimidin-4-yl}-amine], the melting point lay in the range of 255 to 256 °C.
In the case of `Clc1ccccc1CNc1ncnc2[nH]c(-c3ccc(CN4CCCCC4)cc3)cc12` [Example 92, (2-Chloro-benzyl)-[6-(4-piperidin-1-ylmethyl-phenyl)-7H-pyrrolo[2,3-d]pyrimidin-4-yl]-amine] it was 262 to 264 °C.
In the case of `Clc1ccccc1CNc1ncnc2[nH]c(-c3ccc(CN4CCOCC4)cc3)cc12` [Example 93, (2-Chloro-benzyl)-[6-(4-morpholin-4-ylmethyl-phenyl)-7H-pyrrolo[2,3-d]pyrimidin-4-yl]-amine] it was 276 to 279 °C.
`Clc1ccccc1CNc1ncnc2[nH]c(-c3ccc(CN4CCCC4)cc3)cc12` [Example 95, (2-Chloro-benzyl)-[6-(4-pyrrolidin-1-ylmethyl-phenyl)-7H-pyrrolo[2,3-d]pyrimidin-4-yl]-amine] registered a melting point of 264 to 265 °C.
Turning to `CCN(CC)Cc1ccc(-c2cc3c(NCc4ccccc4Cl)ncnc3[nH]2)cc1` [Example 96, (2-Chloro-benzyl)-[6-(4-diethylaminomethyl-phenyl)-7H-pyrrolo[2,3-d]pyrimidin-4-yl]-amine], the melting point was in the range of 257 to 258 °C.
In the case of `CCN1CCN(Cc2ccc(-c3cc4c(NCc5cc(Cl)ccc5Cl)ncnc4[nH]3)cc2)CC1` [Example 97, (2,5-Dichloro-benzyl)-{6-[4-(4-ethyl-piperazin-1-ylmethyl)-phenyl]-7H-pyrrolo[2,3-d]pyrimidin-4-yl}-amine] it was 249 to 251 °C; in that of `CN(C)Cc1ccc(-c2cc3c(NCc4cc(Cl)ccc4Cl)ncnc3[nH]2)cc1` [Example 98, (2,5-Dichloro-benzyl)-[6-(4-dimethylaminomethyl-phenyl)-7H-pyrrolo[2,3-d]pyrimidin-4-yl]-amine], 254 to 257 °C; in that of `Clc1ccc(Cl)c(CNc2ncnc3[nH]c(-c4ccc(CN5CCOCC5)cc4)cc23)c1` [Example 99, (2,5-Dichloro-benzyl)-[6-(4-morpholin-4-ylmethyl-phenyl)-7H-pyrrolo[2,3-d]pyrimidin-4-yl]-amine], 272 to 274 °C.
In the case of `Clc1ccc(Cl)c(CNc2ncnc3[nH]c(-c4ccc(CN5CCCCC5)cc4)cc23)c1` [Example 100, (2,5-Dichloro-benzyl)-[6-(4-piperidin-1-ylmethyl-phenyl)-7H-pyrrolo[2,3-d]pyrimidin-4-yl]-amine], the melting point fell in the range of 258 to 260 °C.
The molecule `CCN(CC)Cc1ccc(-c2cc3c(NCc4cc(Cl)ccc4Cl)ncnc3[nH]2)cc1` [Example 101, (2,5-Dichloro-benzyl)-[6-(4-diethylaminomethyl-phenyl)-7H-pyrrolo[2,3-d]pyrimidin-4-yl]-amine] showed a melting point of 255 to 257 °C.
In the case of `CN1CCN(Cc2ccc(-c3cc4c(NCc5cc(Cl)ccc5Cl)ncnc4[nH]3)cc2)CC1` [Example 102, (2,5-Dichloro-benzyl)-{6-[4-(4-methyl-piperazin-1-ylmethyl)-phenyl]-7H-pyrrolo[2,3-d]pyrimidin-4-yl)-amine] it was 244 to 246 °C; in that of `Clc1ccc(Cl)c(CNc2ncnc3[nH]c(-c4ccc(CN5CCCC5)cc4)cc23)c1` [Example 103, (2,5-Dichloro-benzyl)-[6-(4-pyrrolidin-1-ylmethyl-phenyl)-7H-pyrrolo[2,3-d]pyrimidin-4-yl]-amine], 266 to 268 °C; in that of `COc1cccc(CNc2ncnc3[nH]c(-c4ccc(CN5CCCC5)cc4)cc23)c1` [Example 106, (3-Methoxy-benzyl)-[6-(4-pyrrolidin-1-ylmethyl-phenyl)-7H-pyrrolo[2,3-d]pyrimidin-4-yl]-amine], 220 to 222 °C.
With `COc1cccc(CNc2ncnc3[nH]c(-c4ccc(CN5CCCCC5)cc4)cc23)c1` [Example 107, (3-Methoxy-benzyl)-[6-(4-piperidin-1-ylmethyl-phenyl)-7H-pyrrolo[2,3-d]pyrimidin-4-yl]-amine], the melting point lay in the range of 227 to 229 °C.
`COc1cccc(CNc2ncnc3[nH]c(-c4ccc(CN5CCOCC5)cc4)cc23)c1` [Example 107a, (3-Methoxy-benzyl)-[6-(4-morpholin-4-ylmethyl-phenyl)-7H-pyrrolo[2,3-d]pyrimidin-4-yl]-amine]: the melting point is 263 to 265 °C.
Consider `COc1cccc(CNc2ncnc3[nH]c(-c4ccc(CN5CCN(C)CC5)cc4)cc23)c1` [Example 107b, (3-Methoxy-benzyl)-{6-[4-(4-methyl-piperazin-1-ylmethyl)-phenyl]-7H-pyrrolo[2,3-d]pyrimidin-4-yl}-amine], for which the melting point fell in the range of 225 to 227 °C.
`CCN1CCN(Cc2ccc(-c3cc4c(NCc5cccc(OC)c5)ncnc4[nH]3)cc2)CC1` [Example 107c, {6-[4-(4-Ethyl-piperazin-1-ylmethyl)-phenyl]-7H-pyrrolo[2,3-d]pyrimidin-4-yl}-(3-methoxy-benzyl)-amine] registered a melting point of 231 to 233 °C.
Take `Cc1cccc(CNc2ncnc3[nH]c(-c4ccc(CN5CCCCC5)cc4)cc23)c1` [Example 107d, (3-Methyl-benzyl)-[6-(4-piperidin-1-ylmethyl-phenyl)-7H-pyrrolo[2,3-d]pyrimidin-4-yl]-amine]: the melting point was 246 to 248 °C.
On to `Cc1cccc(CNc2ncnc3[nH]c(-c4ccc(CN5CCOCC5)cc4)cc23)c1` [Example 107e, (3-Methyl-benzyl)-[6-(4-morpholin-4-ylmethyl-phenyl)-7H-pyrrolo[2,3-d]pyrimidin-4-yl]-amine], for which the melting point is 259 to 261 °C.
`Cc1cccc(CNc2ncnc3[nH]c(-c4ccc(CN5CCCC5)cc4)cc23)c1` [Example 107h, (3-Methyl-benzyl)-[6-(4-pyrrolidin-1-ylmethyl-phenyl)-7H-pyrrolo[2,3-d]pyrimidin-4-yl]-amine] registered a melting point of 241 to 243 °C.
In the case of `Cc1cccc(CNc2ncnc3[nH]c(-c4ccc(CN5CCN(C)CC5)cc4)cc23)c1` [Example 107i, (3-Methyl-benzyl)-{6-[4-(4-methyl-piperazin-1-ylmethyl)-phenyl]-7H-pyrrolo[2,3-d]pyrimidin-4-yl}-amine] it was 244 to 246 °C; in that of `CCN1CCN(Cc2ccc(-c3cc4c(NCc5cccc(C)c5)ncnc4[nH]3)cc2)CC1` [Example 107j, {6-[4-(4-Ethyl-piperazin-1-ylmethyl)-phenyl]-7H-pyrrolo[2,3-d]pyrimidin-4-yl}-(3-methyl-benzyl)-amine], 250 to 252 °C.
